Measurements taken from patent US20210353593A1 (Chinook Therapeutics, Inc., priority 2019, published 2021).

Test system: canonical signaling pathways in kidney tissue of g-ddY mice
Experiment: Ingenuity Pathway Analysis (IPA) canonical pathways, g-ddY mouse kidney RNA-seq
Assay type: in vivo

Structure (SMILES): CCCCN(CCCC)C(=O)CN1C[C@H](c2ccc3c(c2)OCO3)[C@@H](C(=O)O)[C@@H]1c1ccc(OC)cc1 [Atrasentan, (2R,3R,4S)-4-(1,3-benzodioxol-5-yl)-1-[2-(dibutylamino)-2-oxoethyl]-2-(4-methoxyphenyl)pyrrolidine-3-carboxylic acid]
- Acute Myeloid Leukemia Signaling z-score (10 mg/kg/day): −0.258
- Acute Phase Response Signaling z-score (10 mg/kg/day): −1.177
- Apelin Cardiac Fibroblast Signaling Pathway z-score (10 mg/kg/day): 1.134
- CXCR4 Signaling z-score (10 mg/kg/day): 0
- Cardiac Hypertrophy Signaling (Enhanced) z-score (10 mg/kg/day): 0.361
- Folate Polyglutamylation z-score (10 mg/kg/day): −1
- GM-CSF Signaling z-score (10 mg/kg/day): −0.243
- GP6 Signaling Pathway z-score (10 mg/kg/day): 0
- Glioblastoma Multiforme Signaling z-score (10 mg/kg/day): 1
- Glioma Signaling z-score (10 mg/kg/day): 0.5
- Gluconeogenesis I z-score (10 mg/kg/day): 0.905
- Glutathione Redox Reactions I z-score (10 mg/kg/day): −0.302
- Glycolysis I z-score (10 mg/kg/day): 0.577
- Gα12/13 Signaling z-score (10 mg/kg/day): −1.279
- Gαg Signaling z-score (10 mg/kg/day): 1
- HGF Signaling z-score (10 mg/kg/day): −0.688
- Hepatic Fibrosis Signaling Pathway z-score (10 mg/kg/day): −0.25
- IGF-1 Signaling z-score (10 mg/kg/day): 0.243
- IL-8 Signaling z-score (10 mg/kg/day): 0.365
- Integrin Signaling z-score (10 mg/kg/day): −0.928
- LPS/IL-1 Mediated Inhibition of RXR Function z-score (10 mg/kg/day): 0.535
- Lymphotoxin β Receptor Signaling z-score (10 mg/kg/day): −1.508
- Macropinocytosis Signaling z-score (10 mg/kg/day): 0.277
- NF-κB Activation by Viruses z-score (10 mg/kg/day): 0
- NF-κB Signaling z-score (10 mg/kg/day): 0.507
- NRF2-mediated Oxidative Stress Response z-score (10 mg/kg/day): 0.471
- Oxidative Phosphorylation z-score (10 mg/kg/day): −0.309
- PDGF Signaling z-score (10 mg/kg/day): −0.5
- PEDF Signaling z-score (10 mg/kg/day): 0
- PI3K Signaling in B Lymphocytes z-score (10 mg/kg/day): 0.426
- PI3K/AKT Signaling z-score (10 mg/kg/day): 0.447
- PTEN Signaling z-score (10 mg/kg/day): −0.426
- Paxillin Signaling z-score (10 mg/kg/day): −1
- Relaxin Signaling z-score (10 mg/kg/day): −0.535
- STAT3 Pathway z-score (10 mg/kg/day): −0.218
- Sirtuin Signaling Pathway z-score (10 mg/kg/day): 0.849
- Small Cell Lung Cancer Signaling z-score (10 mg/kg/day): −0.905
- Sperm Motility z-score (10 mg/kg/day): 1.213
- Sphingosine-1-phosphate Signaling z-score (10 mg/kg/day): −0.218
- TCA Cycle II (Eukalyotic) z-score (10 mg/kg/day): 0.277
- TNFR2 Signaling z-score (10 mg/kg/day): −1.89
- Thrombin Signaling z-score (10 mg/kg/day): 1.3
- Toll-like Receptor Signaling z-score (10 mg/kg/day): −0.302
- Tryptophan Degradation III (Eukalyotic) z-score (10 mg/kg/day): 0.378
- Xenobiotic Metabolism General Signaling Pathway z-score (10 mg/kg/day): −0.577
- Acute Myeloid Leukemia Signaling z-score (20 mg/kg/day): −0.853
- Acute Phase Response Signaling z-score (20 mg/kg/day): −1.298
- Apelin Cardiac Fibroblast Signaling Pathway z-score (20 mg/kg/day): 0.577
- CXCR4 Signaling z-score (20 mg/kg/day): 0.333
- Cardiac Hypertrophy Signaling (Enhanced) z-score (20 mg/kg/day): −0.396
- Folate Polyglutamylation z-score (20 mg/kg/day): 0.447
- GM-CSF Signaling z-score (20 mg/kg/day): −1.46
- GP6 Signaling Pathway z-score (20 mg/kg/day): −1.715
- Glioblastoma Multiforme Signaling z-score (20 mg/kg/day): −0.16
- Glioma Signaling z-score (20 mg/kg/day): −0.816
- Gluconeogenesis I z-score (20 mg/kg/day): −0.302
- Glutathione Redox Reactions I z-score (20 mg/kg/day): −0.277
- Glycolysis I z-score (20 mg/kg/day): 0
- Gα12/13 Signaling z-score (20 mg/kg/day): −0.707
- Gαg Signaling z-score (20 mg/kg/day): −0.822
- HGF Signaling z-score (20 mg/kg/day): 0
- Hepatic Fibrosis Signaling Pathway z-score (20 mg/kg/day): −3.181
- IGF-1 Signaling z-score (20 mg/kg/day): −0.408
- IL-8 Signaling z-score (20 mg/kg/day): −0.905
- Integrin Signaling z-score (20 mg/kg/day): −1.342
- LPS/IL-1 Mediated Inhibition of RXR Function z-score (20 mg/kg/day): 0.626
- Lymphotoxin β Receptor Signaling z-score (20 mg/kg/day): −1.291
- Macropinocytosis Signaling z-score (20 mg/kg/day): 0.243
- NF-κB Activation by Viruses z-score (20 mg/kg/day): −0.816
- NF-κB Signaling z-score (20 mg/kg/day): −1.313
- NRF2-mediated Oxidative Stress Response z-score (20 mg/kg/day): −0.392
- Oxidative Phosphorylation z-score (20 mg/kg/day): −0.283
- PDGF Signaling z-score (20 mg/kg/day): −2.353
- PEDF Signaling z-score (20 mg/kg/day): −1.043
- PI3K Signaling in B Lymphocytes z-score (20 mg/kg/day): −1.333
- PI3K/AKT Signaling z-score (20 mg/kg/day): −0.18
- PTEN Signaling z-score (20 mg/kg/day): 1.029
- Paxillin Signaling z-score (20 mg/kg/day): −0.626
- Relaxin Signaling z-score (20 mg/kg/day): −0.853
- STAT3 Pathway z-score (20 mg/kg/day): 0.192
- Sirtuin Signaling Pathway z-score (20 mg/kg/day): 0.62
- Small Cell Lung Cancer Signaling z-score (20 mg/kg/day): −1.886
- Sperm Motility z-score (20 mg/kg/day): 1.633
- Sphingosine-1-phosphate Signaling z-score (20 mg/kg/day): −0.73
- TCA Cycle II (Eukalyotic) z-score (20 mg/kg/day): −0.535
- TNFR2 Signaling z-score (20 mg/kg/day): 0
- Thrombin Signaling z-score (20 mg/kg/day): −0.926
- Toll-like Receptor Signaling z-score (20 mg/kg/day): −0.258
- Tryptophan Degradation III (Eukalyotic) z-score (20 mg/kg/day): −1.265
- Xenobiotic Metabolism General Signaling Pathway z-score (20 mg/kg/day): −1.581
- Acute Myeloid Leukemia Signaling z-score (30 mg/kg/day): −1.134
- Acute Phase Response Signaling z-score (30 mg/kg/day): −2.832
- Apelin Cardiac Fibroblast Signaling Pathway z-score (30 mg/kg/day): 1.732
- CXCR4 Signaling z-score (30 mg/kg/day): −2.214
- Cardiac Hypertrophy Signaling (Enhanced) z-score (30 mg/kg/day): −6.236
- Folate Polyglutamylation z-score (30 mg/kg/day): 1.342
- GM-CSF Signaling z-score (30 mg/kg/day): −1.225
- GP6 Signaling Pathway z-score (30 mg/kg/day): −4.938
- Glioblastoma Multiforme Signaling z-score (30 mg/kg/day): −3.464
- Glioma Signaling z-score (30 mg/kg/day): −2.353
- Gluconeogenesis I z-score (30 mg/kg/day): 3.464
- Glutathione Redox Reactions I z-score (30 mg/kg/day): 2.496
- Glycolysis I z-score (30 mg/kg/day): 3.051
- Gα12/13 Signaling z-score (30 mg/kg/day): −0.949
- Gαg Signaling z-score (30 mg/kg/day): −2.16
- HGF Signaling z-score (30 mg/kg/day): −3.182
- Hepatic Fibrosis Signaling Pathway z-score (30 mg/kg/day): −5.058
- IGF-1 Signaling z-score (30 mg/kg/day): −1.633
- IL-6 signaling (30 mg/kg/day): reduced
- IL-8 Signaling z-score (30 mg/kg/day): −2.828
- Integrin Signaling z-score (30 mg/kg/day): −3.311
- LPS/IL-1 Mediated Inhibition of RXR Function z-score (30 mg/kg/day): −2.746
- Lymphotoxin β Receptor Signaling z-score (30 mg/kg/day): −2.183
- Macropinocytosis Signaling z-score (30 mg/kg/day): −2.828
- NF-κB Activation by Viruses z-score (30 mg/kg/day): −3.9
- NF-κB Signaling z-score (30 mg/kg/day): −4.636
- NF-κB signaling (30 mg/kg/day): reduced
- NRF2-mediated Oxidative Stress Response z-score (30 mg/kg/day): 1.3
- Oxidative Phosphorylation z-score (30 mg/kg/day): 7.02
- PDGF Signaling z-score (30 mg/kg/day): −3.528
- PDGF signaling (30 mg/kg/day): reduced
- PEDF Signaling z-score (30 mg/kg/day): −3.922
- PI3K Signaling in B Lymphocytes z-score (30 mg/kg/day): −4.041
- PI3K/AKT Signaling z-score (30 mg/kg/day): −1.947
- PTEN Signaling z-score (30 mg/kg/day): 2.214
- Paxillin Signaling z-score (30 mg/kg/day): −2.268
- Relaxin Signaling z-score (30 mg/kg/day): −2.449
- STAT3 Pathway z-score (30 mg/kg/day): −2.556
- Sirtuin Signaling Pathway z-score (30 mg/kg/day): −1.254
- Small Cell Lung Cancer Signaling z-score (30 mg/kg/day): −2.236
- Sperm Motility z-score (30 mg/kg/day): −2.263
- Sphingosine-1-phosphate Signaling z-score (30 mg/kg/day): −1.808
- TCA Cycle II (Eukalyotic) z-score (30 mg/kg/day): 3.207
- TNFR2 Signaling z-score (30 mg/kg/day): −1.291
- Thrombin Signaling z-score (30 mg/kg/day): −2.828
- Toll-like Receptor Signaling z-score (30 mg/kg/day): −2.982
- Tryptophan Degradation III (Eukalyotic) z-score (30 mg/kg/day): 3.742
- Xenobiotic Metabolism General Signaling Pathway z-score (30 mg/kg/day): −0.152
